Source: ChEMBL document CHEMBL1152050, “Asymmetric synthesis of enantiomerically pure 4-fluoroalkyl-2,3-dideoxy nucleosides” (Bioorg Med Chem Lett, 1994)

How the values were obtained:
MT4 [1] = test: Cytotoxicity by the MTT assay in MT-4 cells at a dose of 100 ug/ml; No significant activity; format: functional, cell-based; details: Homo sapiens
MT4 [2] = test: Antiviral activity expressed as ability to prevent the HIV-induced cytopathic effect in MT-4 cells at a dose of 100 ug/ml; No significant activity; format: functional, cell-based; details: Homo sapiens

Cc1cn(C2CC[C@](CO)(CF)O2)c(=O)[nH]c1=O (single isomer, unassigned)
Activity (MT4 [1]): No significant activity | Activity (MT4 [2]): No significant activity

Cc1cn([C@@H]2CCC(CO)(CF)O2)c(=O)[nH]c1=O (single isomer, unassigned)
Activity (MT4 [1]): No significant activity | Activity (MT4 [2]): No significant activity
